Measurements taken from PubChem BioAssay AID1963969 (Molecular Pharmacology Branch, DTP, NCI, 2024).

System: 817829-284-R-J1-PDC multi-cell spheroid viability
Assay: Anticancer human tumor 817829-284-R-J1-PDC patient-derived colon adenocarcinoma cell line growth inhibition [PI3K]
Conditions: for IC50: curve of first compound; for viability, T/C: stronger effect = lower value
How it was run: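 High-throughput combination screen: PI3K inhibitors crossed with targeted small molecules on complex spheroids of tumor cells, HUVEC and MSCs at 37 degrees C, 5% CO2. Top concentration was at or near clinical Cmax (otherwise 10 microM), with half-log decrements.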
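Note: spheroids exposed to agents for seven days before readout.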
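Throughout, for viability, T/C: percent of vehicle DMSO control viability which is 100%.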

In the case of `CNC(=O)c1ccc(N2C(=S)N(c3ccc(C#N)c(C(F)(F)F)c3)C(=O)C2(C)C)cc1F` + COc1c(OCCCN2CCOCC2)ccc2c3n(c(=NC(=O)c4cnc(N)nc4)nc12)CCN3, the IC50 (second compound 0.00316 µM) is reported as > 10000 nM, the IC50 (second compound 0.01 µM) is reported as > 10000 nM and the IC50 (second compound 0.0316 µM) is reported as 3040 nM. For the same compound, the IC50 (second compound 0.1 µM) was < 31.6 nM, the IC50 (second compound 0.316 µM) was < 31.6 nM and the IC50 (second compound 1 µM) was < 31.6 nM. It also gave a viability, T/C (second compound 0.00316 µM, first compound 0.0316 µM) of 72.7%, a viability, T/C (second compound 0.00316 µM, first compound 0.1 µM) of 107% and a viability, T/C (second compound 0.00316 µM, first compound 0.316 µM) of 118%. It also gave a viability, T/C (second compound 0.00316 µM, first compound 1 µM) of 110%, a viability, T/C (second compound 0.00316 µM, first compound 3.16 µM) of 70.9% and a viability, T/C (second compound 0.00316 µM, first compound 10 µM) of 55.9%. It also gave a viability, T/C (second compound 0.01 µM, first compound 0.0316 µM) of 102%, a viability, T/C (second compound 0.01 µM, first compound 0.1 µM) of 107% and a viability, T/C (second compound 0.01 µM, first compound 0.316 µM) of 117%. For the same compound, the viability, T/C (second compound 0.01 µM, first compound 1 µM) was 58.2%, the viability, T/C (second compound 0.01 µM, first compound 3.16 µM) was 81.3% and the viability, T/C (second compound 0.01 µM, first compound 10 µM) was 55%. For the same compound, the viability, T/C (second compound 0.0316 µM, first compound 0.0316 µM) was 52.3%, the viability, T/C (second compound 0.0316 µM, first compound 0.1 µM) was 61.2% and the viability, T/C (second compound 0.0316 µM, first compound 0.316 µM) was 73.6%. For the same compound, the viability, T/C (second compound 0.0316 µM, first compound 1 µM) was 105%, the viability, T/C (second compound 0.0316 µM, first compound 3.16 µM) was 49.2% and the viability, T/C (second compound 0.0316 µM, first compound 10 µM) was 27.3%. For the same compound, the viability, T/C (second compound 0.1 µM, first compound 0.0316 µM) was 35.4%, the viability, T/C (second compound 0.1 µM, first compound 0.1 µM) was 38.6% and the viability, T/C (second compound 0.1 µM, first compound 0.316 µM) was 31.2%. It also gave a viability, T/C (second compound 0.1 µM, first compound 1 µM) of 36.3%, a viability, T/C (second compound 0.1 µM, first compound 3.16 µM) of 31.5% and a viability, T/C (second compound 0.1 µM, first compound 10 µM) of 21.7%. The viability, T/C (second compound 0.316 µM, first compound 0.0316 µM) was 19.9%, the viability, T/C (second compound 0.316 µM, first compound 0.1 µM) was 23% and the viability, T/C (second compound 0.316 µM, first compound 0.316 µM) was 23.2%. For the same compound, the viability, T/C (second compound 0.316 µM, first compound 1 µM) was 18.5%, the viability, T/C (second compound 0.316 µM, first compound 3.16 µM) was 19.1% and the viability, T/C (second compound 0.316 µM, first compound 10 µM) was 17.7%. The viability, T/C (second compound 1 µM, first compound 0.0316 µM) was 11.2%, the viability, T/C (second compound 1 µM, first compound 0.1 µM) was 12.2% and the viability, T/C (second compound 1 µM, first compound 0.316 µM) was 9.45%. The viability, T/C (second compound 1 µM, first compound 1 µM) was 13.1%, the viability, T/C (second compound 1 µM, first compound 3.16 µM) was 11.1% and the viability, T/C (second compound 1 µM, first compound 10 µM) was 9.44%.
In the case of `Cn1cnc2c(F)c(Nc3ccc(Br)cc3Cl)c(C(=O)NOCCO)cc21` + COc1c(OCCCN2CCOCC2)ccc2c3n(c(=NC(=O)c4cnc(N)nc4)nc12)CCN3, the IC50 (second compound 0.00316 µM) is reported as 487 nM, the IC50 (second compound 0.01 µM) is reported as 82.7 nM and the IC50 (second compound 0.0316 µM) is reported as 80.1 nM. The IC50 (second compound 0.1 µM) was < 9.49 nM, the IC50 (second compound 0.316 µM) was < 9.49 nM and the IC50 (second compound 1 µM) was < 9.49 nM. The viability, T/C (second compound 0.00316 µM, first compound 0.00949 µM) was 63.7%, the viability, T/C (second compound 0.00316 µM, first compound 0.03 µM) was 43.5% and the viability, T/C (second compound 0.00316 µM, first compound 0.0949 µM) was 70.4%. For the same compound, the viability, T/C (second compound 0.00316 µM, first compound 0.3 µM) was 69%, the viability, T/C (second compound 0.00316 µM, first compound 0.949 µM) was 34% and the viability, T/C (second compound 0.00316 µM, first compound 3 µM) was 32.1%. The viability, T/C (second compound 0.01 µM, first compound 0.00949 µM) was 62.3%, the viability, T/C (second compound 0.01 µM, first compound 0.03 µM) was 72.2% and the viability, T/C (second compound 0.01 µM, first compound 0.0949 µM) was 35.5%. The viability, T/C (second compound 0.01 µM, first compound 0.3 µM) was 43.7%, the viability, T/C (second compound 0.01 µM, first compound 0.949 µM) was 32.7% and the viability, T/C (second compound 0.01 µM, first compound 3 µM) was 22.9%. The viability, T/C (second compound 0.0316 µM, first compound 0.00949 µM) was 66.5%, the viability, T/C (second compound 0.0316 µM, first compound 0.03 µM) was 50.9% and the viability, T/C (second compound 0.0316 µM, first compound 0.0949 µM) was 56%. It also gave a viability, T/C (second compound 0.0316 µM, first compound 0.3 µM) of 39.5%, a viability, T/C (second compound 0.0316 µM, first compound 0.949 µM) of 25.8% and a viability, T/C (second compound 0.0316 µM, first compound 3 µM) of 18%. The viability, T/C (second compound 0.1 µM, first compound 0.00949 µM) was 48%, the viability, T/C (second compound 0.1 µM, first compound 0.03 µM) was 27.9% and the viability, T/C (second compound 0.1 µM, first compound 0.0949 µM) was 39.6%. The viability, T/C (second compound 0.1 µM, first compound 0.3 µM) was 29.3%, the viability, T/C (second compound 0.1 µM, first compound 0.949 µM) was 24.4% and the viability, T/C (second compound 0.1 µM, first compound 3 µM) was 29.3%. The viability, T/C (second compound 0.316 µM, first compound 0.00949 µM) was 19.6%, the viability, T/C (second compound 0.316 µM, first compound 0.03 µM) was 14.8% and the viability, T/C (second compound 0.316 µM, first compound 0.0949 µM) was 16.3%. The viability, T/C (second compound 0.316 µM, first compound 0.3 µM) was 11.3%, the viability, T/C (second compound 0.316 µM, first compound 0.949 µM) was 11.7% and the viability, T/C (second compound 0.316 µM, first compound 3 µM) was 6.47%. It also gave a viability, T/C (second compound 1 µM, first compound 0.00949 µM) of 15.4%, a viability, T/C (second compound 1 µM, first compound 0.03 µM) of 7.31% and a viability, T/C (second compound 1 µM, first compound 0.0949 µM) of 5.89%. For the same compound, the viability, T/C (second compound 1 µM, first compound 0.3 µM) was 4.21%, the viability, T/C (second compound 1 µM, first compound 0.949 µM) was 4.29% and the viability, T/C (second compound 1 µM, first compound 3 µM) was 1.75%.
